Laboratory results from US20230201311A1, “COMPOSITIONS AND METHODS FOR TREATING NON-ALCOHOLIC STEATOHEPATITIS (NASH)” (SHANGHAI BENEMAE PHARMACEUTICAL CORPORATION, priority 2020, published 2023).

Columns and labels:
[1] = mouse, in vivo, sc
Description: Mice (n=4 per time point) were randomized into different groups by body weight on the day before the study. Mice were fasted overnight before dosing. […] Samples were collected at the time intervals shown in Table 1, where about 60 μL blood was taken into EDTA-coated tubes (pre-added 2.5 μL DPP-4 inhibitor, and 2.5 μL protease inhibitor). The plasma was separated on a pre-cooled centrifuge and then immediately frozen in dry ice. The samples were stored at −80° C. till assay.

HFD-NASH mice [2] = assay: Pharmacodynamics study of Beinaglutide in HFD-NASH mice (Example 1, 4 weeks); format: in vivo
Description: HFD-NASH model development Animals were group-housed in standard cages at 22° C. in a 12:12-h light-dark cycle. Ob/ob mice were allowed ad libitum access to a diet enriched in fat (40% kcal), fructose (20% by weight), and cholesterol (2% by weight) (Research Diets, Inc., #D09100310). Over 9 weeks feeding, the mice (HFD-NASH) were developed with nonalcoholic fatty liver disease (steatosis, steatohepatitis with fibrosis), as assessed by biochemical methods (e.g., ALT levels).^1 ^1Santhekadur P K, Kumar D P, Sanyal AszJ. Preclinical models of non-alcoholic fatty liver disease. J Hepatol. 2018 February; 68(2):230-237; 2) Clapper J R. Hendricks M D, Gu G. at al. Diet-Induced mouse model of fatty liver disease and nonalcoholic steatohepatitis reflecting clinical disease progression and methods of assessment. Am J Physiol Gastrointest Liver Physiol 305: G483-G495. 2013.
After 9 weeks diet-induction, HFD-NASH mice were randomized into different groups by body weight. Body weight and diet were measured every day. At termination, blood was collected by cardiac puncture after animal's euthanasia by CO2. Liver were harvested and weighted. Right medial and/or left lateral lobes of the liver were excised. One part of liver was frozen for liver triglyceride measurement. One part was frozen for protein, RNA level qualification, like collagen 1 alpha 1 (Col1a1). One part was paraffin embedded. Hematoxylin and eosin (H&E) were used for morphological analysis. Picrosirius red stains was used for assessment of hepatic fibrosis. Histopathological analysis was performed by a pathologist blinded to the study. The remaining liver tissue was kept at −80° C. till analysis. Plasma levels of ALT, AST, TG, and total cholesterol (TC) were measured by bioanalyzer or kits.
Oral glucose tolerance test (OGTT) was performed at day 30 and was a test to diagnose type 2 diabetes (FIG. 4B).
Homeostatic Model Assessment of Insulin Resistance (HOMA-IR) is a calculation marker for insulin resistance which was calculated by formula: Glucose (mM)×Insulin […]/22.5 (FIG. 4C). *P<0.05, […] vs vehicle group by student t test.

HFD-NASH mice [3] = assay: Therapeutic effects of Beinaglutide on HFD induced NASH model in ob/ob mice (Example 2, 11 weeks); format: in vivo; settings: for percentage of body weight changes from baselines: Day 78 (11 weeks); for plasma ALT level: FIG. 16B
Excerpt: Animal grouping and experiment process: A total of 70 male ob/ob mice (6 weeks old) were fed with a chow diet after transferred to SPF animal room and acclimatized for 1 week. The feed was then switched to HFD diet (D09100310, fat (40 Kcal %), fructose (20 Kcal %) and cholesterol (2%), also named GAN (Gubra Amylin NASH) diet, Research Diets, Inc., USA) and maintained for 6 weeks. Inversed artificial circadian rhythms lighting were adopted during this period and subsequent drug administration period.
Plasma samples were collected for the measurement of ALT and mouse body weight data were measured at week 6. Animals were then randomly allocated into 4 groups (12 animals/group) based on body weight (the first weight index) and plasma ALT level (the second weight index). Drug and vehicle administration were started from week 7 since modeling start and mice were maintained on HFD diet with inversed artificial circadian rhythms lighting.
Data recording: Appearance and behavior of each mouse were observed after administration. All abnormal appearance, status and behaviors were recorded. In the period of HFD model development, body weight was measured once weekly from week 1 to week 6. Then body weight and food consumption were measured twice weekly since compound dosing start (week 7). The food consumption was calculated by the diet consumption of each cage of mice within 8 hours per day, the average food consumption per group was calculated. […]
Blood and tissue sampling: At the end of the in vivo study, all mice were euthanized via carbon dioxide (CO2) asphyxia after 11.5 hours fasting. Blood samples were collected via cardiac puncturing, one aliquot of each blood sample was collected into a tube without anti-coagulant for serum preparation. Serum was obtained by centrifugation at 3000 rpm for 10 minutes at 4° C. and then stored in a −80° C. refrigerator before being used for the measurement of ALT, AST, total bilirubin (TBIL), TC, TG and LDL-c. The other aliquot of each blood sample was collected into a tube with EDTA-K anti-coagulant for plasma preparation. Plasma samples were obtained by centrifugation at 4000×g for 10 minutes at 4° C. and then stored in a −80° C. refrigerator.
After the animal was sacrificed, the body weight and liver weight were measured, and four lobes of each liver were collected. The right middle lobe of each liver was collected, cut into two sections, put into two SNAP frozen tubes and kept at −80° C. before testing. One section of the liver tissue was used for mRNA expression analysis of Tgfb1, Col1a1 and Acta2; and the other section of the liver tissue was used for the measurement of TC and TG contents. The left middle lobe of each liver was collected, store at −80° C. for future use. The left lateral lobe of each liver was collected, cut into two sections and put into two tubes. One section was used for optimal cutting temperature (OCT) embedding, frozen sectioning and oil red staining for steatosis examination, and for calculation of percentage of fat deposition area. The other section was fixed with 10% neutral formalin solution and processed into formalin fixed paraffin-embedded (FFPE) block for H&E, Sirius red or α-SMA IHC staining respectively. The right lateral lobe of each liver was collected and fixed in 10% neutral formalin for future use.
Serum biochemistry analysis: The serum samples were taken out from −80° C. refrigerator and restored to room temperature. 150 μl of each serum sample was pipetted out for the analysis of ALT, AST, TBIL, TC, TG and LDL-c with automatic biochemical analyzer (HITACHI 7180).
qPCR analysis: The right middle lobe of each liver tissue was cut into small pieces, and 30-50 mg of liver tissue was weighed and transferred into a Lysing Matrix D tube, then 1 ml of TRIzol Reagent was added into Lysing Matrix D containing tissue immediately. […]

[4] = all 3 doses (0.6, 1.2, 2.4 mg/kg), about 11 weeks

With CC[C@H](C)[C@H](NC(=O)[C@H](Cc1ccccc1)NC(=O)[C@H](CCC(=O)O)NC(=O)[C@H](CCCCN)NC(=O)[C@H](C)NC(=O)[C@H](C)NC(=O)[C@H](CCC(N)=O)NC(=O)CNC(=O)[C@H](CCC(=O)O)NC(=O)[C@H](CC(C)C)NC(=O)[C@H](Cc1ccc(O)cc1)NC(=O)[C@H](CO)NC(=O)[C@H](CO)NC(=O)[C@@H](NC(=O)[C@H](CC(=O)O)NC(=O)[C@H](CO)NC(=O)[C@@H](NC(=O)[C@H](Cc1ccccc1)NC(=O)[C@@H](NC(=O)CNC(=O)[C@H](CCC(=O)O)NC(=O)[C@H](C)NC(=O)[C@@H](N)Cc1cnc[nH]1)[C@@H](C)O)[C@@H](C)O)C(C)C)C(=O)N[C@@H](C)C(=O)N[C@@H](Cc1c[nH]c2ccccc12)C(=O)N[C@@H](CC(C)C)C(=O)N[C@H](C(=O)N[C@@H](CCCCN)C(=O)NCC(=O)N[C@@H](CCCNC(=N)N)C(=O)O)C(C)C [Beinaglutide] the “difference of pharmacokinetics between C57BL/6J mice and HFD-NASH mice” value [1] was “No significant difference”, the Body weight (HFD-NASH mice [2]; 2.4 mg/kg s.c. three times per day, 4 weeks, vs control group, FIG. 4A) was “lower body weight” and the liver weight (HFD-NASH mice [2]; 2.4 mg/kg s.c. three times per day, 4 weeks, vs vehicle, FIG. 2A) was “significantly reduced”. The “liver triglyceride (TG) content” value (HFD-NASH mice [2]; 2.4 mg/kg s.c. three times per day, 4 weeks, vs vehicle, FIG. 2B) was “significantly reduced”, the “plasma alanine aminotransferase (ALT)” value (HFD-NASH mice [2]; 2.4 mg/kg s.c. three times per day, 4 weeks, vs vehicle, FIG. 2C) was “significantly reduced” and the “plasma aspartate aminotransferase (AST)” value (HFD-NASH mice [2]; 2.4 mg/kg s.c. three times per day, 4 weeks, vs vehicle, FIG. 2D) was “significantly reduced”. The “macrovesicular and microvesicular steatosis (H&E-stained liver sections)” value (HFD-NASH mice [2]; 2.4 mg/kg s.c. three times per day, 4 weeks, vs vehicle, FIG. 2E) was “significantly reduced”, the “Plasma TNF-α level” value (HFD-NASH mice [2]; 2.4 mg/kg s.c. three times per day, 4 weeks, vs vehicle, FIG. 3A) was “significantly reduced” and the “Plasma IL-6 level” value (HFD-NASH mice [2]; 2.4 mg/kg s.c. three times per day, 4 weeks, vs vehicle, FIG. 3B) was “significantly reduced”. For the same molecule, the “Hepatic fibrosis (picrosirius red stained liver sections)” value (HFD-NASH mice [2]; 2.4 mg/kg s.c. three times per day, 4 weeks, vs vehicle, FIG. 3E) was “significantly reduced”, the “Protein level of liver collagen 1 alpha 1 (western blotting, densitometry normalized to actin)” value (HFD-NASH mice [2]; 2.4 mg/kg s.c. three times per day, 4 weeks, vs vehicle, FIGS. 3C-3D) was “significantly lower” and the “blood glucose in the oral glucose tolerance test (OGTT)” value (HFD-NASH mice [2]; 2.4 mg/kg, OGTT at day 30, vs control group, FIG. 4B) was “lower blood glucose”. The “HOMA-IR (insulin resistance)” value (HFD-NASH mice [2]; 2.4 mg/kg, vs control group, FIG. 4C) was “lower insulin resistance”, the “liver fibrosis scores (H&E staining)” value (HFD-NASH mice [3]; 0.6 mg/kg and 2.4 mg/kg, 11 weeks, vs control group, FIGS. 20A-20C) was “significantly (P<0.05) decreased” and the “animal counts with severe pathological changes (steatosis, steatosis location, interlobular inflammation, liver fibrosis scores, liver fibrosis pattern)” value (HFD-NASH mice [3]; 0.6 mg/kg or 2.4 mg/kg, about 11 weeks) was “decreased”. For the same molecule, the “percentage of body weight changes from baselines” value (shortened to “percentage of body weight changes”) (HFD-NASH mice [3]; 0.6 mg/kg t.i.d. s.c., first of three values given 'respectively') was −10.32%, the “liver TG contents” value (HFD-NASH mice [3]; 1.2 mg/kg and 2.4 mg/kg, 11 weeks, FIG. 18B) was “dramatically decreased” and the “plasma ALT level” value (HFD-NASH mice [3]; 1.2 mg/kg and 2.4 mg/kg, after 6 weeks of treatment) was “significantly decreased”. The “serum ALT” value (HFD-NASH mice [3]; 1.2 mg/kg and 2.4 mg/kg, after 11 weeks of treatment, vs control group, FIG. 17A) was “significantly (P<0.05, or P<0.01) decreased”, the “serum TC levels” value (HFD-NASH mice [3]; 1.2 mg/kg and 2.4 mg/kg, after 11 weeks of treatment, vs control group, FIG. 17E) was “significantly (P<0.05, or P<0.01) decreased” and the “serum AST level” value (HFD-NASH mice [3]; 1.2 mg/kg and 2.4 mg/kg, after 11 weeks, P>0.05, FIG. 17B) was “appeared to have decreased”. For the same molecule, the “percentage of body weight changes” value (HFD-NASH mice [3]; 1.2 mg/kg t.i.d. s.c., second of three values given 'respectively') was −10.12%, the “percentage of body weight changes” value (HFD-NASH mice [3]; 2.4 mg/kg t.i.d. s.c., third of three values given 'respectively') was −10.74% and the “area of liver macrovesicular steatosis (H&E staining)” value (HFD-NASH mice [3]; 2.4 mg/kg, 11 weeks, vs control group, FIG. 23B) was “significantly decreased”. The “number of animals with significant fibrosis severity (liver fibrosis pattern scoring)” value (HFD-NASH mice [3]; 2.4 mg/kg, 11 weeks, FIG. 21C) was “reduced”, the “animal number with severe pathology for steatosis, steatosis location, interlobular inflammation” value (HFD-NASH mice [3]; 2.4 mg/kg, 11 weeks, FIGS. 24A-24E) was “decreased” and the body weight increase (HFD-NASH mice [3]; Beinaglutide treatment groups (0.6, 1.2, 2.4 mg/kg t.i.d. s.c.), 11 weeks, vs control group, FIGS. 13A-13D) was “significantly reduced”. For the same molecule, the “8-hour average food consumption” value (HFD-NASH mice [3]; Beinaglutide treatment groups (0.6, 1.2, 2.4 mg/kg), last 3 measurements (Day 68, 71, 75), vs control group, FIG. 14) was “significantly reduced”, the “plasma ALT level” value (HFD-NASH mice [3]; Beinaglutide treatment groups vs control group, after 9 weeks treatment) was “no significant difference” and the “serum TG levels” value (HFD-NASH mice [3]; Beinaglutide treatment groups, 11 weeks, P>0.05, FIG. 17D) was “no significant effect”. For the same molecule, the “liver TC content” value (HFD-NASH mice [3]; Beinaglutide treatment groups, 11 weeks, vs control group, FIG. 18A) was “No statistically significant effect”, the “serum TBIL” value (HFD-NASH mice [3]; Beinaglutide treatment groups, 11 weeks, FIG. 17C) was “no significant effect” and the liver inflammation score (HFD-NASH mice [3]; [4]) was “appeared to have decreased”. The “serum AST level” value (HFD-NASH mice [3]; [4]) was “appeared to have decreased”, the “α-SMA positive areas (IHC staining)” value (HFD-NASH mice [3]; all Beinaglutide treatment groups, 11 weeks, FIGS. 22A-22B) was “decreased” and the “relative mRNA expression level of Col1a1 in liver (qRT-PCR)” value (HFD-NASH mice [3]; each Beinaglutide dose group, 11 weeks, vs control group, FIG. 19A) was “significantly decreased”. The “Tgfb1 gene expression level in liver (qRT-PCR)” value (HFD-NASH mice [3]; each Beinaglutide dose group, 11 weeks, vs control group, FIG. 19B) was “no statistically significant differences”, the “Acta2 gene expression level in liver (qRT-PCR)” value (HFD-NASH mice [3]; each Beinaglutide dose group, 11 weeks, vs control group, FIG. 19C) was “no statistically significant differences” and the “serum LDL-c level” value (HFD-NASH mice [3]; each Beinaglutide treatment group (0.6, 1.2, 2.4 mg/kg), 11 weeks, vs control group, FIG. 17F) was “significant (P<0.05, P<0.01, or even P<0.001) decrease”. For the same molecule, the “percentage of Sirius red staining positive area” value (HFD-NASH mice [3]; each Beinaglutide treatment group, 11 weeks, vs control group, FIGS. 21A-21C) was “appeared to have decreased”, the liver weight (HFD-NASH mice [3]; every Beinaglutide treatment group (0.6, 1.2, 2.4 mg/kg), 11 weeks, vs control group, FIG. 15A) was “significantly decreased” and the liver index (HFD-NASH mice [3]; every Beinaglutide treatment group (0.6, 1.2, 2.4 mg/kg), 11 weeks, vs control group, FIG. 15B) was “significantly decreased”. The NAS score (HFD-NASH mice [3]; every Beinaglutide treatment group, 11 weeks, FIG. 23A) was “appeared to have decreased”.
